Patent US7521540B2, “CYR61 compositions and methods” (Munin Corporation, priority 1996, dated 2009)
“And” between values parts separate entries of the source, which are not always exact repeats. Equal values may be shown once.

What was measured:
[1] = test system: fibroblasts; test: Adhesion to immobilized peptides or GST-domain fusions, fibroblasts; type: cell-based; conditions: no immobilized Cyr61
Description: (§1) To further localize domains involved in angiogenesis, including endothelial cell migration, the coding regions for domains I, II and III of Cyr61 were separately fused to a coding sequence for glutathione S-transferase (GST), again using conventional technology. The individual fusion constructs were introduced into bacterial hosts, expressed, and purified with glutathione columns, using conventional techniques.
(§2) To confirm that the TSP1 peptide was inhibiting Cyr61 activity by directly interacting with the α6β1, integrin, TSP1 and the peptides collectively having SEQ ID NOS:34-38 were used in the aforementioned cell adhesion assay in the absence of immobilized Cyr61. In these assays, wells were coated with one of the peptides and the immobilized peptides were then separately exposed to either endothelial cells (resting or activated) or fibroblasts. […] None of the other tested peptides (having SEQ ID NOS:34-38, collectively) supported cell adhesion in these assays. However, it is expected that peptides comprising sequences from domain II (von Willebrand Factor domain) of Cyr61 will inhibit the interaction between Cyr61 and the αVβ3 integrin receptor, thereby inhibiting the participation of endothelial cells in the process of angiogenesis. […]

[2] = test system: endothelial cells; test: Matrigel tubule formation assay; type: cell-based
Method: Endothelial cells interacting with Cyr61 require integrin αVβ3 for cell migration and cell survival. However, to form tubules in vitro in a matrigel, integrin α6β1 is required. Thus, the ability of TSP1 to inhibit tubule formation in vitro using a matrigel assay as described in Example 15 (and as known in the art, Davis et al., Exp. Cell Research 216:113-123 (1995), incorporated herein by reference in its entirety) was performed.

[3] = test system: endothelial cells; test: Peptide inhibition of cell adhesion to Cyr61, endothelial cells; type: cell-based
Description: (§3) To localize the relevant domain still further, several overlapping peptides were synthesized. The peptides, each having a sequence set forth in one of SEQ ID NOS:33-38, show significant similarity to an ECM signaling molecule such as mouse Cyr61 (SEQ ID NO:2) or human Cyr61 (SEQ ID NO:4). These peptides were then separately tested for their capacities to inhibit Cyr61 adhesion to endothelial cells or fibroblasts. Peptides were separately added at various concentrations to Cyr61-coated wells containing endothelial cells or fibroblasts, as described above. The peptide designated TSP1 (SEQ ID NO:33) inhibited Cyr61 adhesion to endothelial cells or fibroblasts at concentrations of 25 μM or higher.
To determine if TSP1 was selectively inhibiting Cyr61 binding to […] or α6β1, two integrins found on endothelial cells that bind Cyr61, specific monoclonal antibody blocking studies were performed. These studies involved the separate addition of monoclonal antibody GoH3 (α6-specific, including α6β1; see Example 29) or LM609 ([…]; see Example 29) to cells prior to addition of the mixture to Cyr61-coated wells in the presence or absence of the peptide under study.

[4] = test system: fibroblasts; test: Peptide inhibition of cell adhesion to Cyr61, fibroblasts; type: cell-based; conditions: Cyr61-coated wells
Description: as §3

[5] = test system: endothelial cells; test: Adhesion to immobilized peptides or GST-domain fusions, endothelial cells; type: cell-based; conditions: no immobilized Cyr61
Description: as §1, §2

[6] = test system: Limb mesenchymal cells; test: Limb bud mesenchymal cell attachment; type: cell-based, mouse; conditions: within 1 hour of plating
Method: Cyr61, fibronectin (Gibco), or tenascin (Gibco) were diluted in 0.1% protease-free bovine serum albumin (BSA) in PBS with 0.5 mM PMSF, to a final concentrations of 10 or 50 μg/ml. A 10 μl drop/well was placed in a non-tissue culture treated 24-well plate (Corning), and incubated at room temperature for 2 hours. The wells were blocked with 1% BSA in PBS for 1 hour at room temperature, and rinsed with serum-free MEM (Modified Eagle's Medium). Limb mesenchymal cells, suspended at 5×10^5 cell/ml in serum-free MEM, were added at a volume of 400 μl/well, and incubated at 37° C., 5% CO2 for 1 or 3 hours. At each time point, the cell suspension was removed, the wells were rinsed with MEM and the remaining adherent cells were photographed.

[7] = test system: endothelial cells; conditions: thrombospondin on endothelial cells; fibronectin cell type not stated; cited from earlier work
[8] = test system: HUVE cells; test: HUVE cell attachment to murine Cyr61-coated plates; type: cell-based, human
Method: Another embodiment of the invention is directed to the use of Cyr61 to mediate cellular attachment to the extracellular matrix. Induction of cellular adhesion was investigated using murine Cyr61, fibronectin, and bovine serum albumin (BSA). Immunological 96-well plates (Falcon brand) were coated with 50 μl of 0.1% BSA in PBS at 4° C. in the presence of 0-30 μg/ml concentrations of murine Cyr61 or fibronectin. After two hours exposure to the coating solution, non-diluted immune or pre-immune antisera (30 μl/well), or affinity-purified anti-Cyr61 antibodies were added. For some wells, the coating mixture was adjusted to 10 mM DTT or 100 mM HCl. After 16 hours incubation, the coating solution was removed and the well surface was blocked with 1% BSA in phosphate-buffered saline (PBS) for 1 hour at room temperature. HUVE cells were plated in Ham's complete F12K medium [GIBCO-BRL, Inc.; Ham, Proc. Natl. Acacd. Sci. (USA) 53:786 (1965)] at 5×10^3-10^4 cells/well. Cycloheximide was added to 100 μg/ml immediately before plating and monensin was added to 1 μM 14 hours before plating. After a 2-hour incubation at 37° C., the wells were washed with PBS and attached cells were fixed and stained with methylene blue. The attachment efficiency was determined by quantitative dye extraction and measurement of the extract absorbance at 650 nm. Oliver et al., J. Cell. Sci. 92:513-518 (1989).

[9] = test system: 1064SK primary human foreskin fibroblasts; test: Fibroblast adhesion assay (methylene blue, A620); type: cell-based
Method: The ability of Cyr61 to mediate cell adhesion in normal fibroblasts was investigated. Microtiter wells were coated with purified recombinant Cyr61 protein, and 1064SK primary human foreskin fibroblasts were allowed to adhere under serum-free conditions. […] 50 μl cell suspensions were plated on microtiter wells coated with varying concentrations (0.5-5.0 μg/ml) of Cyr61 protein. After incubation at 37° C. for 30 minutes, adherent cells were fixed and stained with methylene blue.
In another experiment, microtiter wells were coated with either BSA, Cyr61 (2 μg/ml), or vitronectin (VN; 0.5 μg/ml) and blocked with affinity-purified anti-Cyr61 antibodies for one hour at 37° C. before 1064SK cells were plated.
The effects of divalent cations in cell adhesion to Cyr61 was also investigated. […] Data are means from triplicate determinations. […] Inhibition by Ca^2+ is characteristic of adhesion through some members of the β1 family of integrins, including receptors that bind type I collagen, laminin, and vitronectin (integrins α2β1, α6β1, and αVβ1) in fibroblasts, as well as the lymphocyte-specific integrin αLβ2.
The effects of RGD peptides on Cyr61-mediated fibroblast binding was tested by plating cells in wells coated with Cyr61 (2 μg/ml). Type I collagen (2 μg/ml) or vitronectin (0.5 μg/ml), 2 mM GRGDSP or GRGESP peptide was then added.
Cells were also pre-incubated with 40 μg/ml monoclonal antibodies against the integrin α5 or the integrin αV subunits at room temperature for 30 minutes, then plated on wells coated with Cyr61 (2 μg/ml), vitronectin (0.5 μg/ml) or fibronectin (FN, 1 μg/ml). […] The data are means, representative of three experiments.
The 1064 SK cells were also analyzed using the monoclonal antibody JBIA, which binds the β1 integrin subunit. Cells were pre-incubated with the antibody (50 μg/ml) before plating on microtiter wells coated with Cyr61 (2 μg/ml), Type I collagen (2 μg/ml), or vitronectin (0.5 μg/ml). […] Data are means, representative of three experiments.
To identify the specific β1 integrin that mediates fibroblast adhesion to Cyr61, the inhibitory effects of function-blocking monoclonal antibodies were tested against various integrin α subunits. […] The data are means, representative of at least three experiments.

[10] = test system: Limb mesenchymal cells; conditions: 10 μg/ml, literature; cited from earlier work
[11] = test system: Bovine aortic smooth muscle cells (BASM cells); test: Smooth muscle cell adhesion assay; type: cell-based
Method: Cell adhesion assays were also performed on smooth muscle cells. Bovine aortic smooth muscle cells (BASM cells) were subjected to the cell adhesion assay described above in the context of assaying fibroblasts. […] To identify particular integrin, receptors mediating the Cyr61 induction of BASM cell adhesion, antibody studies were conducted using anti-integrin antibodies recognizing specific integrins. […] Thus, integrin α6β1 mediates Cyr61-induced adhesion of smooth muscle cells. It is expected that Cyr61 polypeptides that include the heparan binding domain IV will induce adhesion of any mammalian smooth muscle cell.

In the case of “H 2N-GQKCIVQTTSWSQCSKS-CO2H (H-GQKCIVQTTSWSQCSKS-OH; cysteine pairing not given here) [TSP1]”, the “adhesion of fibroblasts to immobilized peptide or fusion” value [1] is reported as “supported adhesion of endothelial cells and fibroblasts”, the “tubule formation in matrigel” value [2] is reported as “inhibited tubule formation” and the “concentration inhibiting Cyr61 adhesion to endothelial cells” value ([3]; Cyr61-coated wells) is reported as at least 25 µM. For the same substance, the “effect on Cyr61 binding to the α6β1 integrin” value ([3]; GoH3/LM609 blocking studies) was “inhibitied Cyr61 binding to the α6β1 integrin”, the “effect on Cyr61 binding to αVβ3” value ([3]; GoH3/LM609 blocking studies) was “did not inhibit Cyr61 binding to αVβ3” and the “concentration inhibiting Cyr61 adhesion to fibroblasts” value [4] was at least 25 µM. The “adhesion of endothelial cells to immobilized peptide or fusion” value [5] was “supported adhesion of endothelial cells and fibroblasts”.

For fibronectin, the “attachment morphology of limb mesenchymal cells” value [6] is listed as “attached uniformly and started to spread”, the “concentration with chemotactic effect” value [7] is listed as 1 to 30 µg/mL and the “HUVE cell attachment, A650” value ([8]; coating 1 μg/ml) is listed as 0.1 A650. For the same substance, the “HUVE cell attachment, A650” value ([8]; coating 30 μg/ml) was 0.9 A650 and the “1064SK adhesion to coated protein, nothing added” value ([9]; Cyr61 2, VN 0.5, Type I collagen 2, fibronectin 1, laminin 5 μg/ml) was 0.72 A620 and 0.74 A620.

In the case of heparin, the “increase of chondrogenesis in micromass cultures” value [10] is given as 2 fold, the “levels having no effect on cell adhesion to fibronectin” value ([9]; fibronectin 1 μg/ml) is given as “up to 1000 μg/ml” and the “level completely inhibiting cell adhesion to Cyr61” value ([9]; soluble, in cell suspension) is given as at least 0.1 µg/mL. For the same substance, the “level that detectably inhibited binding to Cyr61” value ([9]; soluble, in cell suspension) was 1 ng/mL and the “effect of agent on Cyr61-induced BASM cell adhesion” value [11] was “inhibited Cyr61-induced adhesion”.
